# Results taken from publication PMC7180948, “New Insights into 4-Anilinoquinazolines as Inhibitors of Cardiac Troponin I–Interacting Kinase (TNNi3K)” (Molecules, 2020).
# Like-named read-outs stand apart in the source and are kept apart here.
# How the values were obtained:
# Assay in all cases: biochemical
# PDPK1 = PDPK1 (Homo sapiens, UniProt O15530); set-up: KINOMEscan competition binding panel (Eurofins DiscoverX), single concentration, percent inhibition; conditions: read-out: 15 at 1 µM % inhibition
# Method in brief: (§1)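 A single 1 µM concentration of each compound is screened across upwards of 400 human kinases using the KINOMEscan format.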
# [1] = target: T1, TYK2(JH2domain-pseudokinase) (Homo sapiens, UniProt P29597); set-up: KINOMEscan competition binding panel (Eurofins DiscoverX), single concentration, percent inhibition; conditions: read-out: 15 at 1 µM % inhibition
# T1 construct: JH2domain-pseudokinase
# Method in brief: as §1
# KIT = KIT (Homo sapiens, UniProt P10721); set-up: KINOMEscan competition binding panel (Eurofins DiscoverX), single concentration, percent inhibition; conditions: read-out: 15 at 1 µM % inhibition
# Sequence of KIT (P10721 whole entry): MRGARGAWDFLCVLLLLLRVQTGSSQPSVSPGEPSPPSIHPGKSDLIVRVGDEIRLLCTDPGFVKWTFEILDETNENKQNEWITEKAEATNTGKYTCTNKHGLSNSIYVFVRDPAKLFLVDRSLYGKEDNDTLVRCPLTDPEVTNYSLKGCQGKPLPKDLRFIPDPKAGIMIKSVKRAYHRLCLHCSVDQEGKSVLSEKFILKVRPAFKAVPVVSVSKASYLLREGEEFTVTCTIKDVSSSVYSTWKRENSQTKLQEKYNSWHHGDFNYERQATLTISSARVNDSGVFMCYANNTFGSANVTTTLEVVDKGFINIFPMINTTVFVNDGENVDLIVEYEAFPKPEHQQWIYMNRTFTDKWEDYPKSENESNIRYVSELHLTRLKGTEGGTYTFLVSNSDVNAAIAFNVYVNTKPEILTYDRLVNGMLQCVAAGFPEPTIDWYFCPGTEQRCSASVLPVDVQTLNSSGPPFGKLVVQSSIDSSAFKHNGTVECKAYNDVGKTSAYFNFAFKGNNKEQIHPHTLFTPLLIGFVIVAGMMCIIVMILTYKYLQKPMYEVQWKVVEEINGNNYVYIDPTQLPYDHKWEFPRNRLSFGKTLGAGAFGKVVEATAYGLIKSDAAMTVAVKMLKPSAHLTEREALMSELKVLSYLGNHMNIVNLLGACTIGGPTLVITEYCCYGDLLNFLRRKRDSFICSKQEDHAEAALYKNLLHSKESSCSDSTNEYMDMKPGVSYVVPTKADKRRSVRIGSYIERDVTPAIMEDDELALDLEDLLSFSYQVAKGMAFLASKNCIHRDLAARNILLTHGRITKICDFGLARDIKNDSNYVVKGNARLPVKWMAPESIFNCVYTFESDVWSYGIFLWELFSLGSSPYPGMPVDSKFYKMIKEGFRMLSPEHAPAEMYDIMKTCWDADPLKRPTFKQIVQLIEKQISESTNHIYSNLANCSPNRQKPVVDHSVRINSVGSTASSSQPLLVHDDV
# Method in brief: as §1
# PRKCD = PRKCD (Homo sapiens, UniProt Q05655); set-up: KINOMEscan competition binding panel (Eurofins DiscoverX), single concentration, percent inhibition; conditions: read-out: 15 at 1 µM % inhibition
# Method in brief: as §1
# ERK1 = target: T2, ERK1 (Homo sapiens, UniProt P27361); set-up: KINOMEscan competition binding panel (Eurofins DiscoverX), single concentration, percent inhibition; conditions: read-out: 15 at 1 µM % inhibition
# T2 construct: gene MAPK3
# Method in brief: as §1
# [2] = target: T3, JAK2(JH1domain-catalytic) (Homo sapiens, UniProt O60674); set-up: KINOMEscan competition binding panel (Eurofins DiscoverX), single concentration, percent inhibition; conditions: read-out: 15 at 1 µM % inhibition
# T3 construct: JH1domain-catalytic
# T3 sequence (O60674 whole entry): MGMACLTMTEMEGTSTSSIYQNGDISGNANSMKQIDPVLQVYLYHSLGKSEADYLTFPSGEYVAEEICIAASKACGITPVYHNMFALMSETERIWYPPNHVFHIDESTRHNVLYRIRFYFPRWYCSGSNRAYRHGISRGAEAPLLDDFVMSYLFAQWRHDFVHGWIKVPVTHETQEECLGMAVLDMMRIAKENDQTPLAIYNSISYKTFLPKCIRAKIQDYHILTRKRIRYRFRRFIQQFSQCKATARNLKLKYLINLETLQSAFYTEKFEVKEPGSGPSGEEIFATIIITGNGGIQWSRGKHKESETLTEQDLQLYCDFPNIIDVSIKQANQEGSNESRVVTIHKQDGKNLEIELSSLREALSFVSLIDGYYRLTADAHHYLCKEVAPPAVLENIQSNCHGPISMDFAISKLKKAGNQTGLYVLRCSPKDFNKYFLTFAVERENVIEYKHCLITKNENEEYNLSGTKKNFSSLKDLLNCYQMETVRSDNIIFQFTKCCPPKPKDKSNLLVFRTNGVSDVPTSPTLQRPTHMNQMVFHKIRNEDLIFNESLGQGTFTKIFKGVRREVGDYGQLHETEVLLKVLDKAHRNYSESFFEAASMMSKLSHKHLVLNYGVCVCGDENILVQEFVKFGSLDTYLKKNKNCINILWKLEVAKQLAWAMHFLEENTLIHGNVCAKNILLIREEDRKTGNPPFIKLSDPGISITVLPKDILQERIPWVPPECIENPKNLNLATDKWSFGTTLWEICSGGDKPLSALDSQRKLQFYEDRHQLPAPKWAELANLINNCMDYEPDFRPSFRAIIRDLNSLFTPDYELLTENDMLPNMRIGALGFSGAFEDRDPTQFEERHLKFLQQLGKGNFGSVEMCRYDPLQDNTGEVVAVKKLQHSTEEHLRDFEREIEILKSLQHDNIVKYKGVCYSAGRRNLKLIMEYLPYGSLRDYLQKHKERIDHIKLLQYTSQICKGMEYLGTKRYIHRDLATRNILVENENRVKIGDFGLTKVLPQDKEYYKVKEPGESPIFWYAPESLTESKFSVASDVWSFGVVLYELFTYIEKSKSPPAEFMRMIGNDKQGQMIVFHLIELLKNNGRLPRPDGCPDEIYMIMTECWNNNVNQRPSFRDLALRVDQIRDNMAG
# Method in brief: as §1
# CHEK2 = CHEK2 (Homo sapiens, UniProt O96017); set-up: KINOMEscan competition binding panel (Eurofins DiscoverX), single concentration, percent inhibition; conditions: read-out: 15 at 1 µM % inhibition
# Method in brief: as §1
# [3] = target: T4, RSK4(Kin.Dom.2-C-terminal) (Homo sapiens, UniProt Q9UK32); set-up: KINOMEscan competition binding panel (Eurofins DiscoverX), single concentration, percent inhibition; conditions: read-out: 15 at 1 µM % inhibition
# T4 construct: gene RPS6KA6; Kin.Dom.2-C-terminal
# Method in brief: as §1
# AKT1 = AKT1 (Homo sapiens, UniProt P31749); set-up: KINOMEscan competition binding panel (Eurofins DiscoverX), single concentration, percent inhibition; conditions: read-out: 15 at 1 µM % inhibition
# Method in brief: as §1
# ROCK2 = ROCK2 (Homo sapiens, UniProt O75116); set-up: KINOMEscan competition binding panel (Eurofins DiscoverX), single concentration, percent inhibition; conditions: read-out: 15 at 1 µM % inhibition
# Method in brief: as §1
# PIK4CB = target: T5, PIK4CB (Homo sapiens, UniProt Q9UBF8); set-up: KINOMEscan competition binding panel (Eurofins DiscoverX), single concentration, % inhibition; conditions: read-out: 7 at 1 µM % inhibition
# T5 construct: gene PI4KB
# Protocol: (§2) KinomeScan® Assay on 7 and 15 was performed as previously described by EuroFins DiscoverX [24]. GSK114 (7) and 15 were submitted for a KINOMEscan® assay to explore the selectivity profile across >400 human kinases at a compound concentration of 1 µM. […] GSK114 (7) is a narrow-spectrum TNNi3K inhibitor but has some potent off-targets including GAK which has been previously reported for this chemotype. […] If utilized together this set of compounds could be useful to investigate TNNi3K biology.
# [4] = target: T6, ABL1(Q252H)-nonphosphorylated (Homo sapiens, UniProt P00519, Q252H); set-up: KINOMEscan competition binding panel (Eurofins DiscoverX), single concentration, % inhibition; conditions: read-out: 7 at 1 µM % inhibition
# T6 construct: nonphosphorylated
# Protocol: as §2
# ERBB4 = ERBB4 (Homo sapiens, UniProt Q15303); set-up: KINOMEscan competition binding panel (Eurofins DiscoverX), single concentration, % inhibition; conditions: read-out: 7 at 1 µM % inhibition
# Sequence of ERBB4 (Q15303 whole entry): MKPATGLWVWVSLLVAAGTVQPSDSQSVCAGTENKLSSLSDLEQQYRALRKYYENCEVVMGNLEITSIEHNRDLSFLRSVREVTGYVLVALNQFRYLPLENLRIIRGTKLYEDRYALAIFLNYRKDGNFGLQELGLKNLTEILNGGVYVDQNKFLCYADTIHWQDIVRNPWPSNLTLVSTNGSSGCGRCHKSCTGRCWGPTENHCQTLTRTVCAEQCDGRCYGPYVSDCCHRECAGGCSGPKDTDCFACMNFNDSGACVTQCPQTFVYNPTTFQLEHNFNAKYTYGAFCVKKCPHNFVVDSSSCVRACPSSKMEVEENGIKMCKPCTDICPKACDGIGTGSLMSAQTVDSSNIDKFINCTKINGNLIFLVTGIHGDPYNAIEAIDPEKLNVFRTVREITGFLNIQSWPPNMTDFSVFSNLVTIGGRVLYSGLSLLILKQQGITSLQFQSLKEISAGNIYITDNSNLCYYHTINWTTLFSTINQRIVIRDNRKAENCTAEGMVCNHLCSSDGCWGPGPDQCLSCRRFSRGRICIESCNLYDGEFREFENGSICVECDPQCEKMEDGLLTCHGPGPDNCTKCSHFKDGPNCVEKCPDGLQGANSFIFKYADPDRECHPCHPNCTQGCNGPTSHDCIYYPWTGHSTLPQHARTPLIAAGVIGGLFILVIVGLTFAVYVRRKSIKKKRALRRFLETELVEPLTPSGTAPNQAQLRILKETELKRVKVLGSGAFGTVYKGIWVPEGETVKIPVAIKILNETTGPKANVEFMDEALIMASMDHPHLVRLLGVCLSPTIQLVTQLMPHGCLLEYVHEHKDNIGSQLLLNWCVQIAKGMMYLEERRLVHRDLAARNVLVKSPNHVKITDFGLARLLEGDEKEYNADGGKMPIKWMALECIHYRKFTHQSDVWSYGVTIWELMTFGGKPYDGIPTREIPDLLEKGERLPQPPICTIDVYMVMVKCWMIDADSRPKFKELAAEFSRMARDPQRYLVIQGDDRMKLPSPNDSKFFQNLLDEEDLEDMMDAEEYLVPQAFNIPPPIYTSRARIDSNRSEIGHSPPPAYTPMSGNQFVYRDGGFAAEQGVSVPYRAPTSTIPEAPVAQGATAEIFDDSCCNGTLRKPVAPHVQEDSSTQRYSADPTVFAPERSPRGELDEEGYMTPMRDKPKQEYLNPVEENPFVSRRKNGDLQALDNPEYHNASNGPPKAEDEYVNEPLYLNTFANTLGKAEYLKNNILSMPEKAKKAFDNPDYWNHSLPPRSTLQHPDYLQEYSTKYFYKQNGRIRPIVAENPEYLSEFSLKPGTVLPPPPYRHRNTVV
# Protocol: as §2
# EGFR(S752-I759del) = EGFR(S752-I759del) (Homo sapiens, UniProt P00533, DEL752-759); set-up: KINOMEscan competition binding panel (Eurofins DiscoverX), single concentration, % inhibition; conditions: read-out: 7 at 1 µM % inhibition
# Protocol: as §2
# RET(M918T) = RET(M918T) (Homo sapiens, UniProt P07949, M918T); set-up: KINOMEscan competition binding panel (Eurofins DiscoverX), single concentration, % inhibition; conditions: read-out: 7 at 1 µM % inhibition
# Protocol: as §2
# [5] = target: T3, JAK2(JH1domain-catalytic); set-up: KINOMEscan competition binding panel (Eurofins DiscoverX), single concentration, % inhibition; conditions: read-out: 7 at 1 µM % inhibition
# Protocol: as §2
# TLK1 = TLK1 (Homo sapiens, UniProt Q9UKI8); set-up: KINOMEscan competition binding panel (Eurofins DiscoverX), single concentration, % inhibition; conditions: read-out: 7 at 1 µM % inhibition
# Protocol: as §2
# MYO3B = MYO3B (Homo sapiens, UniProt Q8WXR4); set-up: KINOMEscan competition binding panel (Eurofins DiscoverX), single concentration, % inhibition; conditions: read-out: 7 at 1 µM % inhibition
# Protocol: as §2
# PRKCQ = PRKCQ (Homo sapiens, UniProt Q04759); set-up: KINOMEscan competition binding panel (Eurofins DiscoverX), single concentration, % inhibition; conditions: read-out: 7 at 1 µM % inhibition
# Protocol: as §2
# EGFR(E746-A750del) = EGFR(E746-A750del) (Homo sapiens, UniProt P00533, DEL746-750); set-up: KINOMEscan competition binding panel (Eurofins DiscoverX), single concentration, % inhibition; conditions: read-out: 7 at 1 µM % inhibition
# Sequence of EGFR(E746-A750del) (P00533 with tags, fused parts or gaps DEL746-750): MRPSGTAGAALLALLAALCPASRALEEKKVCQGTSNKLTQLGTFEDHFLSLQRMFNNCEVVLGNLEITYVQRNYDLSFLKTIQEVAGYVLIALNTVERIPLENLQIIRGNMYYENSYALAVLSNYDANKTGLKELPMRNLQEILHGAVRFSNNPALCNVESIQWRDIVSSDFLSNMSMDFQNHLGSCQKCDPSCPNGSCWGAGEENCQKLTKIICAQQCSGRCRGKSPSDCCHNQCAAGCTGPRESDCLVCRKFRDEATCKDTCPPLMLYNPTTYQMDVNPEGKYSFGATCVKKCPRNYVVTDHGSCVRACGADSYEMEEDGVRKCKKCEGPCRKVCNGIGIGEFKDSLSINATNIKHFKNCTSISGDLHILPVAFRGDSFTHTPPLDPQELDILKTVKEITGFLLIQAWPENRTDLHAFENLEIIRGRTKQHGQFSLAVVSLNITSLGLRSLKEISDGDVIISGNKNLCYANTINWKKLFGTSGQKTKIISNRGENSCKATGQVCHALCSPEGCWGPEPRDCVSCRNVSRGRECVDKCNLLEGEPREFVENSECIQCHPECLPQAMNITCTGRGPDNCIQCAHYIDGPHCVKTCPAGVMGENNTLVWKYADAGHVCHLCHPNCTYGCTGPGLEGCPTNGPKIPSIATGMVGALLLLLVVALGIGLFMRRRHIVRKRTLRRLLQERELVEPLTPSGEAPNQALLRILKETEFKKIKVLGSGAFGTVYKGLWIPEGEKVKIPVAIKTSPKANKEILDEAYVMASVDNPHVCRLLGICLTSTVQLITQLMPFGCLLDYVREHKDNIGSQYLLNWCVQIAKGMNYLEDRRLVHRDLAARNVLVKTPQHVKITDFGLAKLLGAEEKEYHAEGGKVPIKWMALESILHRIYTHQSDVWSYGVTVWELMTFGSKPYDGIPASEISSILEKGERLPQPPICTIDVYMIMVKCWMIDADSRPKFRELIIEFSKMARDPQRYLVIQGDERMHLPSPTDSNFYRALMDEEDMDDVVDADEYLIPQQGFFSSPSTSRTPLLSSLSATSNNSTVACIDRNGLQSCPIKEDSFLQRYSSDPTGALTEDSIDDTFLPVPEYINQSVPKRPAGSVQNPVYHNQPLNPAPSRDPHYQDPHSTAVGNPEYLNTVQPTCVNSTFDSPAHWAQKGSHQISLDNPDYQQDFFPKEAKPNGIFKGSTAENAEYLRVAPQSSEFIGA
# Protocol: as §2
# FYN = FYN (Homo sapiens, UniProt P06241); set-up: KINOMEscan competition binding panel (Eurofins DiscoverX), single concentration, % inhibition; conditions: read-out: 7 at 1 µM % inhibition
# Protocol: as §2
# SGK2 = SGK2 (Homo sapiens, UniProt Q9HBY8); set-up: KINOMEscan competition binding panel (Eurofins DiscoverX), single concentration, % inhibition; conditions: read-out: 7 at 1 µM % inhibition
# Sequence of SGK2 (Q9HBY8 whole entry): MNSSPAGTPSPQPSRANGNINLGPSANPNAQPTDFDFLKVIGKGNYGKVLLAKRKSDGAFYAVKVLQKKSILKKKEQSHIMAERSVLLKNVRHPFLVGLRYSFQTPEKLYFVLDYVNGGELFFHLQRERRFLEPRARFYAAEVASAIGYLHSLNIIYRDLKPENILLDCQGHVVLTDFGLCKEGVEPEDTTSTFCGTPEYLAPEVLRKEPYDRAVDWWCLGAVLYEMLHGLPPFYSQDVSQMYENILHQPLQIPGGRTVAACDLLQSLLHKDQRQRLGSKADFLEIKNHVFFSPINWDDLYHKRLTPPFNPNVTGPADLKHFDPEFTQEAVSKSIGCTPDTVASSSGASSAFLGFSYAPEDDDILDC
# Protocol: as §2
# [6] = target: T7, ABL1(F317I)-nonphosphorylated (Homo sapiens, UniProt P00519, F317I); set-up: KINOMEscan competition binding panel (Eurofins DiscoverX), single concentration, % inhibition; conditions: read-out: 7 at 1 µM % inhibition
# T7 construct: nonphosphorylated
# Protocol: as §2
smiles,measurement,setting,value
"CNS(=O)(=O)c1ccc(N(C)C)c(Nc2nc(C)nc3cc(OC)c(OC)cc23)c1 [compound 15, 3-((6,7-dimethoxy-2-methylquinazolin-4-yl)amino)-4-(dimethylamino)-N-methylbenzenesulfonamide]",inhibition at 1 µM,PDPK1,0%
same,inhibition at 1 µM,[1],0%
same,inhibition at 1 µM,KIT,10%
same,inhibition at 1 µM,PRKCD,1%
same,inhibition at 1 µM,ERK1,0%
same,inhibition at 1 µM,[2],0%
same,inhibition at 1 µM,CHEK2,13%
same,inhibition at 1 µM,[3],3%
same,inhibition at 1 µM,AKT1,0%
same,inhibition at 1 µM,ROCK2,5%
"CNS(=O)(=O)c1ccc(N(C)C)c(Nc2ncnc3cc(OC)c(OC)cc23)c1 [compound 7, 3-((6,7-dimethoxyquinazolin-4-yl)amino)-4-(dimethylamino)-N-methylbenzenesulfonamide]",inhibition at 1 µM,PIK4CB,14%
same,inhibition at 1 µM,[4],50%
same,inhibition at 1 µM,ERBB4,0%
same,inhibition at 1 µM,EGFR(S752-I759del),29%
same,inhibition at 1 µM,RET(M918T),0%
same,inhibition at 1 µM,[5],9%
same,inhibition at 1 µM,TLK1,0%
same,inhibition at 1 µM,MYO3B,0%
same,inhibition at 1 µM,PRKCQ,28%
same,inhibition at 1 µM,EGFR(E746-A750del),25%
same,inhibition at 1 µM,FYN,0%
same,inhibition at 1 µM,SGK2,0%
same,inhibition at 1 µM,[6],1%
